Measured values: PMC8667925, “New 1,2,4-oxadiazole derivatives with positive mGlu4 receptor modulation activity and antipsychotic-like properties” (Journal of Enzyme Inhibition and Medicinal Chemistry, 2021)

Experiments:
[1] = molecular target: T1, CYP2C9 (Homo sapiens, UniProt P11712); assay: inhibition of cytochrome P450 isoform activity (fluorescence screening); type: biochemical; details: screening at 1.1, 3.3 and 10 µM
T1 construct: purchased Corning
Experimental: (§1) The assays for cytochrome P450 inhibition facilitate the identification of drug candidates with a lower potential for drug-drug interactions. In vitro experiments conducted to determine whether a drug inhibits a specific CYP enzyme involve an incubation of the drug with probe substrates for the CYP enzymes.
(§2) Recombinant cytochrome P450 isoforms available for the assay: CYP1A2, CYP2B6, CYP2C9, CYP2C19, CYP2D6 and CYP3A4 isoform with various probe substrates enabling fluorescence detection.
(§3) The examined compound was prepared as a 10 mM stock solution in DMSO. The following three concentrations of the test compound were used for screening determination: 1.1, 3.3 and 10 μM. […] Plates filled with solution of cofactors (NADP, G6P, MgCl2, G6PDH) as well as examined compound were scanned with a fluorescence plate reader in order to eliminate false results originating from autofluorescence of the test compounds. […] At the end of the incubation, the reaction was stopped and the fluorescence of the product was determined continuously with the specific for every product excitation as well as emission values with the use of multiwell plate scanner equipped with fluorescence measurement (Fluorescence EnSpire Multimode Plate Reader).

[2] = molecular target: T2, CYP2C19 (Homo sapiens, UniProt P33261); assay: as above; type: biochemical; details: screening at 1.1, 3.3 and 10 µM
T2 construct: purchased Corning
T2 sequence (P33261 whole entry): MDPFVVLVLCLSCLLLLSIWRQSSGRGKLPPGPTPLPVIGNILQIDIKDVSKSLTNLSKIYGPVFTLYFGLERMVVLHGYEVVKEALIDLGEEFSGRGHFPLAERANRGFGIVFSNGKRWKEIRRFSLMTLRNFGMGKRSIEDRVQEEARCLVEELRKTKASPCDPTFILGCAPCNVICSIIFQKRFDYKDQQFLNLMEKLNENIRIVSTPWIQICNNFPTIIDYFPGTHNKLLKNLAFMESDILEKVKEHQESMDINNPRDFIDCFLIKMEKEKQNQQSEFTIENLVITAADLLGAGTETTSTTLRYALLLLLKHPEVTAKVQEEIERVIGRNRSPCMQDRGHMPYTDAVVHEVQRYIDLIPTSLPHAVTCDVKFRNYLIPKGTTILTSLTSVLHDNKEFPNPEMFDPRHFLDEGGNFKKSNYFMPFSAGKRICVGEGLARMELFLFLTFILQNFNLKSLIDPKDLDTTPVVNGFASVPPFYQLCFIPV
Experimental: as §1, §2, §3

T1 sequence (P11712 whole entry, canonical isoform): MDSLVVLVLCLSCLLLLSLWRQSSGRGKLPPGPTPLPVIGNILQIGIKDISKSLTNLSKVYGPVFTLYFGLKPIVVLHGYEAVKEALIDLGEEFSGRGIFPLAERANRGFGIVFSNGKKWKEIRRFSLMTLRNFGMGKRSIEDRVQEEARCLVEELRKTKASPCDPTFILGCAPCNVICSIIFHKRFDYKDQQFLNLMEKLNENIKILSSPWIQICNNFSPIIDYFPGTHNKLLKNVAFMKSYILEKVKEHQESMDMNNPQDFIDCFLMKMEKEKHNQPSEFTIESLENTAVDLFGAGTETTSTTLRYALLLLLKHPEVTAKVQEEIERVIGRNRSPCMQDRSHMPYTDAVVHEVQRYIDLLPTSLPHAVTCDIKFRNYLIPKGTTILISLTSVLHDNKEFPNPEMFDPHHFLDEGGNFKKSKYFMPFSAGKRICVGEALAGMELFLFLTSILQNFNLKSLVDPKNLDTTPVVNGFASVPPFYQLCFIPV

SMILES: O=C(Nc1ccc(-c2noc(-c3ccccc3Cl)n2)c(Cl)c1)c1ccccn1 [Compound 52, N-(3-chloro-4-(5-(2-chlorophenyl)-1,2,4-oxadiazol-3-yl)phenyl)picolinamide]
- IC50 [1]: 3.3 to 10 µM
- IC50 [2]: 3.3 to 10 µM
